Measurements as given in patent US8927500B2, “Peptidomimetic macrocycles” (Aileron Therapeutics, Inc., priority 2012, dated 2015).
Where a SMILES comes first, the peptide text is derived from it. Bridges are numbered along the chain shown (N, C = ends). [ ]: non-standard residue; d: D form. R8 = C=CCCCCCC[C@@](C)(N)C(=O)O; Cba = N[C@@H](CC1CCC1)C(=O)O; hLeu = CC(C)CC[C@H](N)C(=O)O; S5 = C=CCCC[C@](C)(N)C(=O)O; Nle = CCCC[C@H](N)C(=O)O

Tests used:
MDM2 = MDM2 (Homo sapiens, UniProt Q00987); assay: Competitive fluorescence polarization assay for MDM2; assay type: binding; conditions: competitive FP assay, MDM2; for IC50: read-out: IC50 (MDM2); for Ki: read-out: Ki (MDM2)
Chain of MDM2 (Q00987 1-125): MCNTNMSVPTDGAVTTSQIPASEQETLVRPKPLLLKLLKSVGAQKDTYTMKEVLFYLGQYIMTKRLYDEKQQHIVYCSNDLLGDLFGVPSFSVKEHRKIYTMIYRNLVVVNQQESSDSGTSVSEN

MDMX = target: T1, MDMX (Homo sapiens, UniProt O15151); assay: Competitive fluorescence polarization assay for MDMX; assay type: binding; conditions: competitive FP assay; for IC50: read-out: IC50 (MDMX); for Ki: read-out: Ki (MDMX)
T1 sequence (O15151 1-125): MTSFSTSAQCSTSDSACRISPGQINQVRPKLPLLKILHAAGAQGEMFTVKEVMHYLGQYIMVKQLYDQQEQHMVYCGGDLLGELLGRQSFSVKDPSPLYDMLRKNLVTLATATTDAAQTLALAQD

| SMILES | IC50 (MDM2) | Ki (MDM2) | IC50 (MDMX) | Ki (MDMX) |
| --- | --- | --- | --- | --- |
| CCCC[C@H](NC(=O)[C@H](C)NC(=O)[C@H](C)NC(=O)[C@]1(C)CCCC=CCCCCCC[C@@](C)(NC(=O)[C@H](Cc2ccccc2)NC(=O)[C@H](C)NC(=O)[C@H](C)NC(C)=O)C(=O)N[C@@H](CCC(=O)O)C(=O)N[C@@H](Cc2ccc(O)cc2)C(=O)N[C@@H](Cc2c[nH]c3ccccc23)C(=O)N[C@@H](C)C(=O)N[C@@H](CCC(N)=O)C(=O)N[C@@H](CC(C)C)C(=O)N1)C(=O)N[C@@H](C)C(N)=O [compound 371] (Ac-AAF[R8]EYWAQL[S5]AA[Nle]A-NH2; staple 4-11) | 100 to 1000 nM | 10 to 100 nM | 100 to 1000 nM | 10 to 100 nM |
| CCCC[C@H](NC(=O)[C@H](C)NC(=O)[C@H](C)NC(=O)[C@]1(C)CCCC=CCCCCCC[C@@](C)(NC(=O)[C@H](Cc2ccccc2)NC(=O)[C@H](C)NC(=O)[C@H](C)NC(=O)[C@H](C)NC(C)=O)C(=O)N[C@@H](CCC(=O)O)C(=O)N[C@@H](Cc2ccc(O)cc2)C(=O)N[C@@H](Cc2c[nH]c3ccccc23)C(=O)N[C@@H](C)C(=O)N[C@@H](CCC(N)=O)C(=O)N[C@@H](CC(C)C)C(=O)N1)C(=O)N[C@@H](C)C(N)=O [compound 372] (Ac-AAAF[R8]EYWAQL[S5]AA[Nle]A-NH2; staple 5-12) | 100 to 1000 nM | 10 to 100 nM | 100 to 1000 nM | 10 to 100 nM |
| CCCC[C@H](NC(=O)[C@H](C)NC(=O)[C@H](C)NC(=O)[C@]1(C)CCCC=CCCCCCC[C@@](C)(NC(=O)[C@H](Cc2ccccc2)NC(=O)[C@H](C)NC(=O)[C@H](C)NC(=O)[C@H](C)NC(=O)[C@H](C)NC(C)=O)C(=O)N[C@@H](CCC(=O)O)C(=O)N[C@@H](Cc2ccc(O)cc2)C(=O)N[C@@H](Cc2c[nH]c3ccccc23)C(=O)N[C@@H](C)C(=O)N[C@@H](CCC(N)=O)C(=O)N[C@@H](CC(C)C)C(=O)N1)C(=O)N[C@@H](C)C(N)=O [compound 373] (Ac-AAAAF[R8]EYWAQL[S5]AA[Nle]A-NH2; staple 6-13) | 10 to 100 nM | 10 to 100 nM | 10 to 100 nM | 10 to 100 nM |
| CCCC[C@H](NC(=O)[C@H](C)NC(=O)[C@H](C)NC(=O)[C@]1(C)CCCC=CCCCCCC[C@@](C)(NC(=O)[C@H](Cc2ccccc2)NC(=O)[C@@H](NC(=O)[C@H](C)NC(=O)[C@H](C)NC(C)=O)[C@@H](C)O)C(=O)N[C@@H](CCC(=O)O)C(=O)N[C@@H](Cc2ccc(O)cc2)C(=O)N[C@@H](Cc2c[nH]c3ccccc23)C(=O)N[C@@H](C)C(=O)N[C@@H](CCC(N)=O)C(=O)N[C@@H](CC(C)C)C(=O)N1)C(=O)N[C@@H](C)C(N)=O [compound 374] (Ac-AATF[R8]EYWAQL[S5]AA[Nle]A-NH2; staple 5-12) | 10 to 100 nM | < 10 nM | 10 to 100 nM | < 10 nM |
| CCCC[C@H](NC(=O)[C@H](C)NC(=O)[C@H](C)NC(=O)[C@]1(C)CCCC=CCCCCCC[C@@](C)(NC(=O)[C@H](Cc2ccccc2)NC(=O)[C@@H](NC(=O)[C@H](CC(C)C)NC(=O)[C@H](C)NC(=O)[C@H](C)NC(C)=O)[C@@H](C)O)C(=O)N[C@@H](CCC(=O)O)C(=O)N[C@@H](Cc2ccc(O)cc2)C(=O)N[C@@H](Cc2c[nH]c3ccccc23)C(=O)N[C@@H](C)C(=O)N[C@@H](CCC(N)=O)C(=O)N[C@@H](CC(C)C)C(=O)N1)C(=O)N[C@@H](C)C(N)=O [compound 375] (Ac-AALTF[R8]EYWAQL[S5]AA[Nle]A-NH2; staple 6-13) | 10 to 100 nM | < 10 nM | 10 to 100 nM | < 10 nM |
| CCCC[C@H](NC(=O)[C@H](C)NC(=O)[C@H](C)NC(=O)[C@]1(C)CCCC=CCCCCCC[C@@](C)(NC(=O)[C@H](Cc2ccccc2)NC(=O)[C@@H](NC(=O)[C@H](CC(C)C)NC(=O)[C@H](C)NC(=O)[C@H](C)NC(=O)[C@H](C)NC(C)=O)[C@@H](C)O)C(=O)N[C@@H](CCC(=O)O)C(=O)N[C@@H](Cc2ccc(O)cc2)C(=O)N[C@@H](Cc2c[nH]c3ccccc23)C(=O)N[C@@H](C)C(=O)N[C@@H](CCC(N)=O)C(=O)N[C@@H](CC(C)C)C(=O)N1)C(=O)N[C@@H](C)C(N)=O [compound 376] (Ac-AAALTF[R8]EYWAQL[S5]AA[Nle]A-NH2; staple 7-14) | 10 to 100 nM | < 10 nM | 10 to 100 nM | < 10 nM |
| CCCC[C@H](NC(=O)[C@H](C)NC(=O)[C@H](C)NC(=O)[C@]1(C)CCCC=CCCCCCC[C@@](C)(NC(=O)[C@H](Cc2ccccc2)NC(=O)[C@@H](NC(=O)[C@H](CC(C)C)NC(C)=O)[C@@H](C)O)C(=O)N[C@@H](CCC(=O)O)C(=O)N[C@@H](Cc2ccc(O)cc2)C(=O)N[C@@H](Cc2c[nH]c3ccccc23)C(=O)N[C@@H](C)C(=O)N[C@@H](CCC(N)=O)C(=O)N[C@@H](CC(C)C)C(=O)N1)C(=O)N[C@@H](C)C(=O)N[C@@H](C)C(N)=O [compound 377] (Ac-LTF[R8]EYWAQL[S5]AA[Nle]AA-NH2; staple 4-11) | 10 to 100 nM | < 10 nM | 10 to 100 nM | 10 to 100 nM |
| CCCC[C@H](NC(=O)[C@H](C)NC(=O)[C@H](C)NC(=O)[C@]1(C)CCCC=CCCCCCC[C@@](C)(NC(=O)[C@H](Cc2ccccc2)NC(=O)[C@@H](NC(=O)[C@H](CC(C)C)NC(=O)[C@H](C)NC(C)=O)[C@@H](C)O)C(=O)N[C@@H](CCC(=O)O)C(=O)N[C@@H](Cc2ccc(O)cc2)C(=O)N[C@@H](Cc2c[nH]c3ccccc23)C(=O)N[C@@H](C)C(=O)N[C@@H](CCC(N)=O)C(=O)N[C@@H](CC(C)C)C(=O)N1)C(=O)N[C@@H](C)C(=O)N[C@@H](C)C(N)=O [compound 378] (Ac-ALTF[R8]EYWAQL[S5]AA[Nle]AA-NH2; staple 5-12) | 10 to 100 nM | < 10 nM | 10 to 100 nM | 10 to 100 nM |
| CCCC[C@H](NC(=O)[C@H](C)NC(=O)[C@H](C)NC(=O)[C@]1(C)CCCC=CCCCCCC[C@@](C)(NC(=O)[C@H](Cc2ccccc2)NC(=O)[C@@H](NC(=O)[C@H](CC(C)C)NC(=O)[C@H](C)NC(=O)[C@H](C)NC(C)=O)[C@@H](C)O)C(=O)N[C@@H](CCC(=O)O)C(=O)N[C@@H](Cc2ccc(O)cc2)C(=O)N[C@@H](Cc2c[nH]c3ccccc23)C(=O)N[C@@H](C)C(=O)N[C@@H](CCC(N)=O)C(=O)N[C@@H](CC(C)C)C(=O)N1)C(=O)N[C@@H](C)C(=O)N[C@@H](C)C(N)=O [compound 379] (Ac-AALTF[R8]EYWAQL[S5]AA[Nle]AA-NH2; staple 6-13) | 10 to 100 nM | < 10 nM | 10 to 100 nM | 10 to 100 nM |
| CCCC[C@H](NC(=O)[C@H](C)NC(=O)[C@H](C)NC(=O)[C@]1(C)CCCC=CCCCCCC[C@@](C)(NC(=O)[C@H](Cc2ccccc2)NC(=O)[C@@H](NC(=O)[C@H](CC(C)C)NC(C)=O)[C@@H](C)O)C(=O)N[C@@H](CCC(=O)O)C(=O)N[C@@H](Cc2ccc(O)cc2)C(=O)N[C@@H](Cc2c[nH]c3ccccc23)C(=O)N[C@@H](C)C(=O)N[C@@H](CCC(N)=O)C(=O)N[C@@H](CC2CCC2)C(=O)N1)C(=O)N[C@@H](C)C(=O)N[C@@H](C)C(N)=O [compound 380] (Ac-LTF[R8]EYWAQ[Cba][S5]AA[Nle]AA-NH2; staple 4-11) | 10 to 100 nM | < 10 nM | 10 to 100 nM | 10 to 100 nM |
| CCCC[C@H](NC(=O)[C@H](C)NC(=O)[C@H](C)NC(=O)[C@]1(C)CCCC=CCCCCCC[C@@](C)(NC(=O)[C@H](Cc2ccccc2)NC(=O)[C@@H](NC(=O)[C@H](CC(C)C)NC(C)=O)[C@@H](C)O)C(=O)N[C@@H](CCC(=O)O)C(=O)N[C@@H](Cc2ccc(O)cc2)C(=O)N[C@@H](Cc2c[nH]c3ccccc23)C(=O)N[C@@H](C)C(=O)N[C@@H](CCC(N)=O)C(=O)N[C@@H](CCC(C)C)C(=O)N1)C(=O)N[C@@H](C)C(=O)N[C@@H](C)C(N)=O [compound 381] (Ac-LTF[R8]EYWAQ[hLeu][S5]AA[Nle]AA-NH2; staple 4-11) | 10 to 100 nM | < 10 nM | 10 to 100 nM | 10 to 100 nM |
| CCCC[C@H](NC(=O)[C@H](C)NC(=O)[C@H](C)NC(=O)[C@]1(C)CCCC=CCCCCCC[C@@](C)(NC(=O)[C@H](Cc2ccccc2)NC(=O)[C@@H](NC(=O)[C@H](CC(C)C)NC(=O)[C@H](C)NC(C)=O)[C@@H](C)O)C(=O)N[C@@H](CCC(=O)O)C(=O)N[C@@H](Cc2ccc(O)cc2)C(=O)N[C@@H](Cc2c[nH]c3ccccc23)C(=O)N[C@@H](C)C(=O)N[C@@H](CCC(N)=O)C(=O)N[C@@H](CCC(C)C)C(=O)N1)C(=O)N[C@@H](C)C(=O)N[C@@H](C)C(N)=O [compound 382] (Ac-ALTF[R8]EYWAQ[hLeu][S5]AA[Nle]AA-NH2; staple 5-12) | 10 to 100 nM | < 10 nM | 10 to 100 nM | < 10 nM |
| CCCC[C@H](NC(=O)[C@H](C)NC(=O)[C@H](C)NC(=O)[C@]1(C)CCC/C=C/CCCCCC[C@@](C)(NC(=O)[C@H](Cc2ccccc2)NC(=O)[C@@H](NC(=O)[C@H](CC(C)C)NC(C)=O)[C@@H](C)O)C(=O)N[C@@H](C)C(=O)N[C@@H](Cc2ccc(O)cc2)C(=O)N[C@@](C)(Cc2c[nH]c3ccccc23)C(=O)N[C@@H](C)C(=O)N[C@@H](CCC(N)=O)C(=O)N[C@@H](CC(C)C)C(=O)N1)C(=O)N[C@@H](C)C(N)=O [compound 388] | 100 to 1000 nM | 10 to 100 nM | 10 to 100 nM | < 10 nM |
| C=CCCCCCC[C@@](C)(NC(=O)[C@H](Cc1ccccc1)NC(=O)[C@@H](NC(=O)[C@H](CC(C)C)NC(C)=O)[C@@H](C)O)C(=O)N[C@@H](C)C(=O)N[C@@H](Cc1ccc(O)cc1)C(=O)N[C@@H](Cc1c[nH]c2ccccc12)C(=O)N[C@@H](C)C(=O)N[C@@H](CCC(N)=O)C(=O)N[C@@H](CC(C)C)C(=O)N[C@@](C)(CCCC=C)C(=O)N[C@@H](C)C(=O)N[C@@H](C)C(=O)N[C@@H](CCCC)C(=O)N[C@@H](C)C(N)=O [compound 411] | 100 to 1000 nM | 100 to 1000 nM | > 1000 nM | > 1000 nM |
